Assay results as given in the supplement of paper PMC10307832.

Assays:
Experiment in all cases: relative viability (nuclei count vs DMSO), 5 days (fraction); higher = more cells survive
[1] = compound: COc1cc2ncn(-c3cc(OCc4ccccc4C(F)(F)F)c(C(N)=O)s3)c2cc1OC + CC(=O)c1c(C)c2cnc(Nc3ccc(N4CCNCC4)cn3)nc2n(C2CCCC2)c1=O [Palbociclib] (partner 0.5 µM)
Outline: (§1)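 Relative viability equals treated-well nuclei counts divided by vehicle-well nuclei counts. Counts came from 4× images of lung cancer cell lines grown in 1536-well plates for 5 days after pin-tool dosing on the day after seeding. Dosing used one drug alone or a fixed anchor-drug dose plus five library-drug doses (not always all listed) in √10 steps, and values are medians of duplicate plates.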

[2] = compound: COc1cc2ncn(-c3cc(OCc4ccccc4C(F)(F)F)c(C(N)=O)s3)c2cc1OC + Cc1nc(Nc2ncc(C(=O)Nc3c(C)cccc3Cl)s2)cc(N2CCN(CCO)CC2)n1 [Dasatinib] (partner 0.075 µM)
Outline: as §1

[3] = compound: COc1cc2ncn(-c3cc(OCc4ccccc4C(F)(F)F)c(C(N)=O)s3)c2cc1OC + CC(C)C[C@H](NC(=O)[C@H](Cc1ccccc1)NC(=O)c1cnccn1)B(O)O [Bortezomib] (partner 0.002 µM)
Outline: as §1

[4] = compound: COc1cc2ncn(-c3cc(OCc4ccccc4C(F)(F)F)c(C(N)=O)s3)c2cc1OC + CCNC(=O)c1noc(-c2cc(C(C)C)c(O)cc2O)c1-c1ccc(CN2CCOCC2)cc1 [Luminespib] (partner 0.01 µM)
Outline: as §1

| Cell Line | relative viability ([1]; first compound 0.05 µM) | relative viability ([1]; first compound 0.1581 µM) | relative viability ([1]; first compound 0.5 µM) | relative viability ([1]; first compound 1.581 µM) | relative viability ([1]; first compound 5 µM) | relative viability ([2]; first compound 0.05 µM) | relative viability ([2]; first compound 0.1581 µM) | relative viability ([2]; first compound 0.5 µM) | relative viability ([2]; first compound 1.581 µM) | relative viability ([2]; first compound 5 µM) | relative viability ([3]; first compound 0.05 µM) | relative viability ([3]; first compound 0.1581 µM) | relative viability ([3]; first compound 0.5 µM) | relative viability ([3]; first compound 1.581 µM) | relative viability ([3]; first compound 5 µM) | relative viability ([4]; first compound 0.05 µM) | relative viability ([4]; first compound 0.1581 µM) | relative viability ([4]; first compound 0.5 µM) | relative viability ([4]; first compound 1.581 µM) | relative viability ([4]; first compound 5 µM) |
| --- | --- | --- | --- | --- | --- | --- | --- | --- | --- | --- | --- | --- | --- | --- | --- | --- | --- | --- | --- | --- |
| HCC-78 | 0.497 | 0.478 | 0.435 | 0.406 | 0.357 | 0.463 | 0.537 | 0.306 | 0.317 | 0.206 | 0.472 | 0.496 | 0.39 | 0.238 | 0.227 | – | – | – | – | – |
| NCI-H2085 | 0.423 | 0.476 | 0.488 | 0.38 | 0.244 | 0.23 | 0.233 | 0.221 | 0.217 | 0.209 | 0.968 | 1.11 | 0.796 | 0.529 | 0.362 | 0.37 | 0.401 | 0.357 | 0.273 | 0.253 |
| PC-3 [JPC-3] | 0.568 | 0.541 | 0.534 | 0.435 | 0.429 | 0.943 | 0.98 | 0.767 | 0.174 | 0.168 | 0.863 | 0.803 | 0.775 | 0.285 | 0.231 | 0.66 | 0.712 | 0.486 | 0.221 | 0.19 |
| NCI-H2342 | 0.519 | 0.509 | 0.513 | 0.437 | 0.422 | 0.325 | 0.354 | 0.279 | 0.278 | 0.237 | – | – | – | – | – | 0.757 | 0.752 | 0.715 | 0.597 | 0.545 |
| A-427 | 0.553 | 0.479 | 0.502 | 0.331 | 0.236 | 0.839 | 0.501 | 0.602 | 0.175 | 0.088 | 1.05 | 1.05 | 0.752 | 0.258 | 0.251 | 0.998 | 0.973 | 0.617 | 0.246 | 0.114 |
| H3255 | 0.315 | 0.285 | 0.306 | 0.256 | 0.264 | 0.346 | 0.349 | 0.344 | – | 0.279 | 0.793 | 0.746 | 0.708 | 0.363 | 0.242 | 0.861 | 0.924 | 0.757 | – | 0.518 |
| HCC-44 | 1.02 | 1.01 | 0.925 | 0.383 | 0.35 | – | – | – | – | – | 0.949 | 0.874 | 0.714 | 0.127 | 0.107 | 0.854 | 1.13 | 0.613 | 0.168 | 0.132 |
| NCI-H1734 | 0.315 | 0.334 | 0.325 | 0.203 | 0.171 | 0.477 | 0.516 | 0.387 | 0.197 | 0.129 | 1.01 | 0.884 | 0.59 | 0.234 | 0.143 | 0.18 | 0.239 | 0.17 | 0.147 | 0.125 |
| NCI-H2228 | 0.767 | 0.328 | 0.352 | 0.192 | 0.259 | 0.381 | 0.472 | 0.176 | 0.132 | 0.181 | 1.01 | 0.849 | 0.208 | 0.182 | 0.18 | 0.114 | 0.159 | 0.147 | 0.139 | 0.126 |
| ABC-1 | 0.665 | 0.777 | 0.748 | 0.583 | 0.37 | 0.539 | 0.542 | 0.469 | 0.276 | 0.239 | 0.304 | 0.294 | 0.281 | 0.242 | 0.233 | 0.709 | 0.679 | 0.255 | 0.311 | 0.263 |
| COR-L23 | 0.27 | 0.335 | 0.22 | 0.119 | 0.111 | 0.434 | 0.364 | 0.203 | 0.102 | 0.0618 | 0.937 | 0.933 | 0.689 | 0.126 | 0.111 | 0.363 | 0.604 | 0.249 | 0.104 | 0.0965 |
| NCI-H596 | – | – | – | – | – | 0.616 | 0.561 | 0.478 | 0.279 | 0.235 | – | 1.11 | 0.828 | 0.638 | 0.312 | 1.16 | 1.08 | 0.79 | 0.272 | 0.276 |
| NCI-H358 | 0.139 | 0.126 | 0.11 | 0.0792 | 0.0843 | 0.151 | 0.195 | 0.185 | 0.0783 | 0.0726 | – | – | – | – | – | 0.26 | 0.378 | 0.29 | 0.102 | 0.13 |
| EBC-1 | – | – | – | – | – | – | – | – | – | – | 0.454 | 0.439 | 0.208 | 0.139 | 0.159 | – | – | – | – | – |
| SK-MES-1 | 0.298 | 0.281 | 0.264 | 0.192 | 0.199 | 0.338 | 0.367 | 0.184 | 0.129 | 0.116 | – | – | – | – | – | 0.725 | 0.83 | 0.266 | 0.167 | 0.182 |
| NCI-H1703 | – | – | – | – | – | – | – | – | – | – | 0.384 | 0.339 | 0.172 | 0.0978 | 0.173 | – | – | – | – | – |
| NCI-H1944 | 0.412 | 0.373 | 0.308 | 0.205 | 0.119 | 0.227 | 0.223 | 0.191 | 0.127 | 0.109 | – | – | – | – | – | 0.512 | 0.705 | 0.543 | 0.177 | 0.0836 |
| NCI-H1563 | – | – | – | – | – | 0.51 | 0.506 | 0.454 | 0.44 | 0.349 | 0.985 | 1.01 | 0.807 | 0.676 | 0.592 | 0.587 | 0.501 | 0.513 | 0.474 | 0.4 |
| NCI-H1395 | 0.614 | 0.763 | 0.507 | 0.377 | 0.28 | 0.413 | 0.438 | 0.455 | 0.358 | 0.306 | – | – | – | – | – | 0.753 | 0.814 | 0.579 | 0.321 | 0.359 |
| NCI-H2170 | 0.401 | 0.371 | 0.212 | 0.165 | 0.148 | 0.545 | 0.406 | 0.374 | 0.163 | 0.156 | – | – | – | – | – | 0.4 | 0.845 | 0.415 | 0.189 | 0.177 |
